{"source": "ChEMBL document CHEMBL5528044", "about": "“Exploring the Function of (+)-Naltrexone Precursors: Their Activity as TLR4 Antagonists and Potential in Treating Morphine Addiction” (J Med Chem, 2024)", "key": {"[1]": {"target": "T1, Toll-like receptor 4 (Mus musculus, UniProt Q9QUK6)", "T1 sequence (Q9QUK6 whole entry)": "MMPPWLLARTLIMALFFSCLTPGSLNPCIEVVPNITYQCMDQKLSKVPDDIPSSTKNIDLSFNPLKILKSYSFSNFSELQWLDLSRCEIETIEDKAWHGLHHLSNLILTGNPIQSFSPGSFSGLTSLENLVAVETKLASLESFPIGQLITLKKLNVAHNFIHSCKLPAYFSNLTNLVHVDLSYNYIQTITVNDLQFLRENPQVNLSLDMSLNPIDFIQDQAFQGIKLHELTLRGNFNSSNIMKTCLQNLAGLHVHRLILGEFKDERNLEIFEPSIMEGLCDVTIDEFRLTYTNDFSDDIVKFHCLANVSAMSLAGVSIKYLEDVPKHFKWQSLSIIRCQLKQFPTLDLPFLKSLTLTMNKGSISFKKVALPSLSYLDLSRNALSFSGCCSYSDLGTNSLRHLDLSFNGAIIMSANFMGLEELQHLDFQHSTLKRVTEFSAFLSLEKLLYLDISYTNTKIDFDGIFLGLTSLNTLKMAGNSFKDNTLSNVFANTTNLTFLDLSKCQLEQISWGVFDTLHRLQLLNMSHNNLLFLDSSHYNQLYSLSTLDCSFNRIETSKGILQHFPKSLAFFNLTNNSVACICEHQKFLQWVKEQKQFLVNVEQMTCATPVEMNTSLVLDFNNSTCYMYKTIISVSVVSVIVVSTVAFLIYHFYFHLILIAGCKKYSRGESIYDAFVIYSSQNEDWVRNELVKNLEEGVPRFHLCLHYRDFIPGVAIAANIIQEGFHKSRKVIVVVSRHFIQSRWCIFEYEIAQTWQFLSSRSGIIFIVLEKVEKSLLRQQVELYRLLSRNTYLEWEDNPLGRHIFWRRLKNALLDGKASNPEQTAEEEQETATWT", "assay": "Antagonist activity at TLR4 in mouse BV-2 cells assessed as inhibition of LPS-induced NO overproduction incubated for 24 hrs by 2,3-diaminonaphthalene reagent based microplate reader analysis", "format": "cell-based"}, "[2]": {"target": "T2, Toll-like receptor 4 (Mus musculus) (UniProt Q9QUK6)", "T2 sequence (whole entry)": "T1 sequence (Q9QUK6 whole entry)", "assay": "Antagonist activity at TLR4 in mouse BV-2 cells assessed as inhibition of LPS-induced TNF-alpha production at 0.01 to 100 uM by ELISA", "format": "cell-based", "conditions": "dose 0.01-100 µM"}, "[3]": {"target": "T2, Toll-like receptor 4 (Mus musculus)", "assay": "Antagonist activity at TLR4 in mouse BV-2 cells assessed as inhibition of LPS-induced NF-kappaB activation at 4 uM incubated for 24 hrs by dual-glo luciferase assay", "format": "cell-based"}, "[4]": {"target": "T2, Toll-like receptor 4 (Mus musculus)", "assay": "Antagonist activity at TLR4 signaling pathway in mouse BV-2 cells assessed as inhibition of LPS-induced TRIF recruitment at 5 uM incubated for 1 hr by co-immunoprecipitation based Western blot analysis", "format": "cell-based"}, "[5]": {"target": "T2, Toll-like receptor 4 (Mus musculus)", "assay": "Antagonist activity at TLR4 signaling pathway in mouse BV-2 cells assessed as inhibition of LPS-induced MyD88 recruitment at 5 uM incubated for 1 hr by co-immunoprecipitation based Western blot analysis", "format": "cell-based"}, "[6]": {"target": "T2, Toll-like receptor 4 (Mus musculus)", "assay": "Antagonist activity at TLR4 signaling pathway in mouse BV-2 cells assessed as downregulation of LPS-induced IKKalpha phosphorylation at 5 uM incubated for 1 hr by Western blot analysis", "format": "cell-based"}, "[7]": {"target": "T2, Toll-like receptor 4 (Mus musculus)", "assay": "Antagonist activity at TLR4 signaling pathway in mouse BV-2 cells assessed as downregulation of LPS-induced IKKbeta phosphorylation at 5 uM incubated for 1 hr by Western blot analysis", "format": "cell-based"}, "[8]": {"target": "T2, Toll-like receptor 4 (Mus musculus)", "assay": "Antagonist activity at TLR4 signaling pathway in mouse BV-2 cells assessed as downregulation of LPS-induced ERK phosphorylation at 5 uM incubated for 1 hr by Western blot analysis", "format": "cell-based"}, "[9]": {"target": "T2, Toll-like receptor 4 (Mus musculus)", "assay": "Antagonist activity at TLR4 signaling pathway in mouse BV-2 cells assessed as downregulation of LPS-induced JNK phosphorylation at 5 uM incubated for 1 hr by Western blot analysis", "format": "cell-based"}, "[10]": {"target": "T2, Toll-like receptor 4 (Mus musculus)", "assay": "Antagonist activity at TLR4 signaling pathway in mouse BV-2 cells assessed as downregulation of LPS-induced IRF-3 phosphorylation at 5 uM incubated for 1 hr by Western blot analysis", "format": "cell-based"}, "[11]": {"test_system": "Mus musculus", "assay": "Inhibition of morphine-induced addiction behavior in Balb/c mouse assessed as decrease in locomotor activity at 0.2 mg/kg,ip administrated on day 4 to 10 by open-field test", "format": "functional, organism-based", "conditions": "time 7.0 day"}, "[12]": {"test_system": "Mus musculus", "assay": "Inhibition of morphine-induced addiction behavior in Balb/c mouse assessed reduction in CPP score at 0.2 mg/kg,ip administrated for 6 consecutive days by conditioned place preference assay", "format": "functional, organism-based"}, "[13]": {"test_system": "Mus musculus", "assay": "Inhibition of chronic morphine-induced microglia activation in Balb/c mouse assessed as reduction in Iba1 expression in brain medial prefrontal cortex region at 0.2 mg/kg,ip administrated for 6 consecutive days by immunofluorescence staining based analysis", "format": "functional, organism-based"}, "[14]": {"test_system": "Mus musculus", "assay": "Inhibition of chronic morphine-induced microglia activation in Balb/c mouse assessed as reduction in Iba1 expression in brain ventral tegmental area region at 0.2 mg/kg,ip administrated for 6 consecutive days by immunofluorescence staining based analysis", "format": "functional, organism-based"}, "[15]": {"test_system": "Mus musculus", "assay": "Inhibition of chronic morphine-induced microglia activation in Balb/c mouse assessed as reduction in Iba1 expression in nucleus accumbens region at 0.2 mg/kg,ip administrated for 6 consecutive days by immunofluorescence staining based analysis", "format": "functional, organism-based"}, "[16]": {"test_system": "Mus musculus", "assay": "Inhibition of chronic morphine-induced microglia activation in Balb/c mouse assessed as reduction in TNF-alpha mRNA expression in brain medial prefrontal cortex region at 0.2 mg/kg,ip administrated for 6 consecutive days by qPCR analysis", "format": "functional, organism-based"}, "[17]": {"test_system": "Mus musculus", "assay": "Inhibition of chronic morphine-induced microglia activation in Balb/c mouse assessed as reduction in TNF-alpha mRNA expression in brain ventral tegmental area region at 0.2 mg/kg,ip administrated for 6 consecutive days by qPCR analysis", "format": "functional, organism-based"}, "[18]": {"test_system": "Mus musculus", "assay": "Inhibition of chronic morphine-induced microglia activation in Balb/c mouse assessed as reduction in TNF-alpha mRNA expression in brain nucleus accumbens region at 0.2 mg/kg,ip administrated for 6 consecutive days by qPCR analysis", "format": "functional, organism-based"}, "[19]": {"test_system": "Mus musculus", "assay": "Inhibition of chronic morphine-induced microglia activation in Balb/c mouse assessed as reduction in microglia cell number in brain medial prefrontal cortex region at 0.2 mg/kg,ip administrated for 6 consecutive days by immunofluorescence staining based analysis", "format": "functional, organism-based"}, "[20]": {"test_system": "Mus musculus", "assay": "Inhibition of chronic morphine-induced microglia activation in Balb/c mouse assessed as reduction in microglia cell number in brain ventral tegmental area region at 0.2 mg/kg,ip administrated for 6 consecutive days by immunofluorescence staining based analysis", "format": "functional, organism-based"}, "[21]": {"test_system": "Mus musculus", "assay": "Inhibition of chronic morphine-induced microglia activation in Balb/c mouse assessed as reduction in microglia cell number in brain nucleus accumbens region at 0.2 mg/kg,ip administrated for 6 consecutive days by immunofluorescence staining based analysis", "format": "functional, organism-based"}}, "note": "Calls of active or inactive are those of the source. No cut-off for these calls is given here."}
{"smiles": "COc1ccc2c3c1O[C@@H]1C(=O)CC[C@@H]4[C@H](C2)N(C)CC[C@@]314", "values": [{"measurement": "IC50", "setting": "[1]", "result": "> 200", "unit": "µM"}]}
{"smiles": "COc1ccc2c3c1O[C@@H]1C(OC)(OC)C(Br)C[C@@H]4[C@H](C2)N(C)CC[C@]341", "note": "(some centres not stated)", "values": [{"measurement": "IC50", "setting": "[1]", "result": "> 200", "unit": "µM"}]}
{"smiles": "COc1ccc2c3c1O[C@@H]1C(=O)CC[C@]4(OC(C)=O)[C@H](C2)N(C)CC[C@@]314", "values": [{"measurement": "IC50", "setting": "[1]", "result": "> 200", "unit": "µM"}]}
{"smiles": "COc1ccc2c3c1O[C@@H]1C(OC)(OC)CC[C@@H]4[C@H](C2)N(C)CC[C@]341", "values": [{"measurement": "IC50", "setting": "[1]", "result": "> 200", "unit": "µM"}]}
{"smiles": "COc1ccc2c3c1O[C@@H]1C(=O)C=C[C@@H]4[C@H](C2)N(C)CC[C@@]314", "values": [{"measurement": "IC50", "setting": "[1]", "result": 6.9, "unit": "µM"}]}
{"smiles": "CN1CC[C@@]23c4c5ccc(O)c4O[C@@H]2C(=O)CC[C@]3(O)[C@@H]1C5", "values": [{"measurement": "IC50", "setting": "[1]", "result": 33.5, "unit": "µM"}, {"measurement": "Activity", "setting": "[2]", "result": "inactive"}, {"measurement": "Activity", "setting": "[3]", "result": "inactive"}, {"measurement": "Activity", "setting": "[4]", "result": "inactive"}, {"measurement": "Activity", "setting": "[5]", "result": "inactive"}, {"measurement": "Activity", "setting": "[6]", "result": "inactive"}, {"measurement": "Activity", "setting": "[7]", "result": "inactive"}, {"measurement": "Activity", "setting": "[8]", "result": "inactive"}, {"measurement": "Activity", "setting": "[9]", "result": "inactive"}, {"measurement": "Activity", "setting": "[10]", "result": "inactive"}]}
{"smiles": "COC1=CC=C2[C@@H]3Cc4ccc(OC)c5c4[C@]2(CCN3C)[C@@H]1O5", "values": [{"measurement": "IC50", "setting": "[1]", "result": 197, "unit": "µM"}]}
{"smiles": "COc1ccc2c(c1O)[C@@]13CCN(C)[C@@H](C2)[C@H]1CC(OC)C(=O)C3", "note": "(some centres not stated)", "values": [{"measurement": "IC50", "setting": "[1]", "result": "> 200", "unit": "µM"}]}
{"smiles": "COc1ccc2c3c1O[C@@H]1C(=O)CC[C@]4(OC(C)=O)[C@H](C2)N(C#N)CC[C@@]314", "values": [{"measurement": "IC50", "setting": "[1]", "result": 67.8, "unit": "µM"}]}
{"smiles": "COC1=CC[C@@H]2[C@@H]3Cc4ccc(OC)c5c4[C@]2(CCN3C)[C@@H]1O5", "values": [{"measurement": "IC50", "setting": "[1]", "result": "> 200", "unit": "µM"}]}
{"smiles": "COc1ccc2c3c1O[C@@H]1C(=O)CC[C@]4(O)[C@H](C2)NCC[C@@]314", "values": [{"measurement": "IC50", "setting": "[1]", "result": "> 200", "unit": "µM"}]}
{"smiles": "O=C1CC[C@]2(O)[C@@H]3Cc4ccc(O)c5c4[C@]2(CCN3CC2CC2)[C@@H]1O5", "values": [{"measurement": "inhibition", "setting": "[11]", "result": "Active"}, {"measurement": "inhibition", "setting": "[12]", "result": "inactive"}, {"measurement": "inhibition", "setting": "[13]", "result": "inactive"}, {"measurement": "inhibition", "setting": "[14]", "result": "inactive"}, {"measurement": "inhibition", "setting": "[15]", "result": "inactive"}, {"measurement": "inhibition", "setting": "[16]", "result": "inactive"}, {"measurement": "inhibition", "setting": "[17]", "result": "inactive"}, {"measurement": "inhibition", "setting": "[18]", "result": "inactive"}, {"measurement": "inhibition", "setting": "[19]", "result": "inactive"}, {"measurement": "inhibition", "setting": "[20]", "result": "inactive"}, {"measurement": "inhibition", "setting": "[21]", "result": "inactive"}]}
{"smiles": "COc1ccc2c3c1O[C@@H]1C(=O)CC[C@]4(O)[C@H](C2)N(C)CC[C@@]314", "note": "(single isomer, unassigned)", "values": [{"measurement": "IC50", "setting": "[1]", "result": "> 200", "unit": "µM"}, {"measurement": "Activity", "setting": "[2]", "result": "inactive"}, {"measurement": "Activity", "setting": "[3]", "result": "inactive"}, {"measurement": "Activity", "setting": "[4]", "result": "inactive"}, {"measurement": "Activity", "setting": "[5]", "result": "inactive"}, {"measurement": "Activity", "setting": "[6]", "result": "inactive"}, {"measurement": "Activity", "setting": "[7]", "result": "inactive"}, {"measurement": "Activity", "setting": "[8]", "result": "inactive"}, {"measurement": "Activity", "setting": "[9]", "result": "inactive"}, {"measurement": "Activity", "setting": "[10]", "result": "inactive"}]}
{"smiles": "COC1=C[C@@H]2[C@@H]3Cc4ccc(OC)c(O)c4[C@]2(CCN3C)CC1=O", "note": "[SINOMENINE]", "values": [{"measurement": "IC50", "setting": "[1]", "result": "> 200", "unit": "µM"}]}
